{"source": "patent US5248684A", "about": "“Certain 2-oxo-quinoline carboxylates or corresponding carboxamides useful as anti-emetics and suppressants of migraine” (Kyowa Hakko Kogyo Co., Ltd., priority 1990, dated 1993)", "key": {"ddY strain male mice": {"tested_on": "ddY strain male mice", "test": "Acute toxicity (MLD, Minimum Lethal Dose)", "format": "in vivo", "conditions": "7 days observation", "protocol": "The test compound was orally and intraperitoneally administered to ddY strain male mice weighing 20 to 25 g. MLD (Minimum Lethal Dose) was determined by observing the mortality for 7 days after the administration."}, "[1]": {"tested_on": "Cisplatin-induced vomiting", "test": "Activity against CisPlatin-induced vomiting", "format": "in vivo, Suncus murinus", "conditions": "30 min before Cisplatin 40 mg/kg i.p.; for Number of Vomiting (Episodes) (mean ± S.E.M.): 5 to 120 min, control 28.0 ± 6.7; for Latency (mean ± S.E.M.): time to first vomiting, control 35.1 ± 4.4", "protocol": "b) Activity against CisPlatin-induced vomiting\nFemale and male Suncus murinus animals weighing 23 to 68 g were used, one group consisting of 5 to 10 animals. According to the method of Matsuki et al. (Japan J. Pharmacol., 48, 303 (1988)], the animals were isolated in metal mesh cage (one animal/one cage). One hour after, the test compound or physiological saline (control) was intraperitoneally administered (i.p.) in a volume of 0.1 ml/10 g of body weight. Further 30 minutes after administration of the test compound, Cisplatin (40 mg/kg) was intraperitoneally administered. After administration of Cisplatin, a time period (latency) for the first vomiting and the number of frequencies (episodes) of vomiting caused in the period of 5 to 120 minutes after administration were determined. The latency and the number of frequencies in the test compound administered group were compared with those in the control group. The test of significance was performed by Student's t-test."}}, "data": [{"smiles": "CCCCn1c(=O)cc(C(=O)N[C@H]2C[C@H]3CCC[C@@H](C2)N3C)c2ccccc21", "note": "[Compound 10Sa, Endo-N-(9-methyl-9-azabicyclo[3.3.1]non-3-yl)-1-(n-butyl)-2-oxo-1,2-dihydro-4-quinolinecarboxamide]", "values": [{"measurement": "MLD (Minimum Lethal Dose)", "setting": "ddY strain male mice; i.p.", "value": 100, "unit": "mg/kg"}, {"measurement": "MLD (Minimum Lethal Dose)", "setting": "ddY strain male mice; p.o.", "value": 300, "unit": "mg/kg"}]}, {"smiles": "CCCCn1c(=O)cc(C(=O)N[C@H]2C[C@H]3CC[C@@H](C2)N3C)c2ccccc21", "note": "[Compound 6Sa, Endo-N-(8-methyl-8-azabicyclo[3.2.1]oct-3-yl)-1-(n-butyl)-2-oxo-1,2-dihydro-4-quinolinecarboxamide]", "values": [{"measurement": "MLD (Minimum Lethal Dose)", "setting": "ddY strain male mice; i.p.", "value": "> 100", "unit": "mg/kg"}, {"measurement": "MLD (Minimum Lethal Dose)", "setting": "ddY strain male mice; p.o.", "value": "> 300", "unit": "mg/kg"}]}, {"smiles": "CCCn1c(=O)cc(C(=O)N[C@H]2C[C@H]3CC[C@@H](C2)N3C)c2ccccc21", "note": "[Compound 7Sa, Endo-N-(8-methyl-8-azabicyclo[3.2.1]oct-3-yl)-1-(n-propyl)-2-oxo-1,2-dihydro-4-quinolinecarboxamide]", "values": [{"measurement": "MLD (Minimum Lethal Dose)", "setting": "ddY strain male mice; i.p.", "value": "> 100", "unit": "mg/kg"}, {"measurement": "MLD (Minimum Lethal Dose)", "setting": "ddY strain male mice; p.o.", "value": "> 300", "unit": "mg/kg"}]}, {"smiles": "CN1[C@@H]2CC[C@H]1C[C@@H](OC(=O)c1cc(=O)n(Cc3ccccc3)c3ccccc13)C2", "note": "[Compound 18Sa, Endo-(8-methyl-8-azabicyclo[3.2.1]oct-3-yl) 1-benzyl-2-oxo-1,2-dihydro-4-quinolinecarboxylate]", "values": [{"measurement": "MLD (Minimum Lethal Dose)", "setting": "ddY strain male mice; i.p.", "value": 100, "unit": "mg/kg"}, {"measurement": "MLD (Minimum Lethal Dose)", "setting": "ddY strain male mice; p.o.", "value": "> 300", "unit": "mg/kg"}]}, {"smiles": "CCCCn1c(=O)cc(C(=O)O[C@H]2C[C@H]3CC[C@@H](C2)N3C)c2ccccc21", "note": "[Compound 1Sa, Endo-(8-methyl-8-azabicyclo[3.2.1]oct-3-yl)-1-(n-butyl)-2-oxo-1,2-dihydro-4-quinolinecarboxylate]", "values": [{"measurement": "Number of Vomiting (Episodes) (mean ± S.E.M.)", "setting": "[1]; 0.1 mg/kg i.p.", "value": "18.0 ± 1.6", "unit": "Episodes"}, {"measurement": "Latency (mean ± S.E.M.)", "setting": "[1]; 0.1 mg/kg i.p.", "value": "44.3 ± 2.0", "unit": "min"}, {"measurement": "Number of Vomiting (Episodes) (mean ± S.E.M.)", "setting": "[1]; 0.5 mg/kg i.p., *p < 0.05", "value": "6.8 ± 2.0", "unit": "Episodes"}, {"measurement": "Latency (mean ± S.E.M.)", "setting": "[1]; 0.5 mg/kg i.p., *p < 0.05", "value": "71.5 ± 12.9", "unit": "min"}, {"measurement": "MLD (Minimum Lethal Dose)", "setting": "ddY strain male mice; i.p.", "value": 100, "unit": "mg/kg"}, {"measurement": "MLD (Minimum Lethal Dose)", "setting": "ddY strain male mice; p.o.", "value": 200, "unit": "mg/kg"}]}, {"smiles": "CCCCCn1c(=O)cc(C(=O)O[C@H]2C[C@H]3CC[C@@H](C2)N3C)c2ccccc21", "note": "[Compound 16Sa, Endo-(8-methyl-8-azabicyclo[3.2.1]oct-3-yl)2-oxo-1-n-pentyl-1,2-dihydro-4-quinolinecarboxylate]", "values": [{"measurement": "MLD (Minimum Lethal Dose)", "setting": "ddY strain male mice; i.p.", "value": 100, "unit": "mg/kg"}, {"measurement": "MLD (Minimum Lethal Dose)", "setting": "ddY strain male mice; p.o.", "value": 300, "unit": "mg/kg"}]}, {"smiles": "CCCCn1c(=O)c(O)c(C(=O)N[C@H]2C[C@H]3CC[C@@H](C2)N3C)c2ccccc21", "note": "[Compound 29Sa, Endo-N-(8-methyl-8-azabicyclo[3.2.1]oct-3-yl)-1-n-butyl-3-hydroxy-2-oxo-1,2-dihydro-4-quinolinecarboxamide]", "values": [{"measurement": "MLD (Minimum Lethal Dose)", "setting": "ddY strain male mice; i.p.", "value": "> 100", "unit": "mg/kg"}, {"measurement": "MLD (Minimum Lethal Dose)", "setting": "ddY strain male mice; p.o.", "value": "> 300", "unit": "mg/kg"}]}, {"smiles": "CN1[C@@H]2CC[C@H]1C[C@@H](NC(=O)c1cc(=O)n(C)c3ccccc13)C2", "note": "[Compound 8Sa, Endo-N-(8-methyl-8-azabicyclo[3.2.1]oct-3-yl)-1-methyl-2-oxo-1,2-dihydro-4-quinolinecarboxamide]", "values": [{"measurement": "MLD (Minimum Lethal Dose)", "setting": "ddY strain male mice; i.p.", "value": "> 100", "unit": "mg/kg"}, {"measurement": "MLD (Minimum Lethal Dose)", "setting": "ddY strain male mice; p.o.", "value": "> 300", "unit": "mg/kg"}]}, {"smiles": "CN1[C@@H]2CC[C@H]1C[C@@H](OC(=O)c1cc(=O)n(-c3ccccc3)c3ccccc13)C2", "note": "[Compound 19Sa, Endo-(8-methyl-8-azabicyclo[3.2.1]oct-3-yl) 2-oxo-1-phenyl-1,2-dihydro-4-quinolinecarboxylate]", "values": [{"measurement": "MLD (Minimum Lethal Dose)", "setting": "ddY strain male mice; i.p.", "value": 100, "unit": "mg/kg"}, {"measurement": "MLD (Minimum Lethal Dose)", "setting": "ddY strain male mice; p.o.", "value": 200, "unit": "mg/kg"}]}, {"smiles": "CCCn1c(=O)cc(C(=O)O[C@H]2C[C@H]3CC[C@@H](C2)N3C)c2ccccc21", "note": "[Compound 2Sa, Endo-(8-methyl-B-azabicyclo[3.2.1]oct-3-yl)2-oxo-l-(n-propyl)-1,2-dihydro-4-quinolinecarboxylate]", "values": [{"measurement": "MLD (Minimum Lethal Dose)", "setting": "ddY strain male mice; i.p.", "value": 100, "unit": "mg/kg"}, {"measurement": "MLD (Minimum Lethal Dose)", "setting": "ddY strain male mice; p.o.", "value": 200, "unit": "mg/kg"}]}, {"smiles": "CC(C)n1c(=O)cc(C(=O)O[C@H]2C[C@H]3CC[C@@H](C2)N3C)c2ccccc21", "note": "[Compound 3Sa, Endo-(8-methyl-8-azabicyclo[3.2.1]oct-3-yl)l-isopropyl-2-oxo-1,2-dihydro-4-quinolinecarboxylate]", "values": [{"measurement": "MLD (Minimum Lethal Dose)", "setting": "ddY strain male mice; i.p.", "value": 100, "unit": "mg/kg"}, {"measurement": "MLD (Minimum Lethal Dose)", "setting": "ddY strain male mice; p.o.", "value": 200, "unit": "mg/kg"}]}, {"smiles": "CCCCn1c(=O)c(C(=O)N[C@H]2C[C@H]3CC[C@@H](C2)N3C)c(O)c2cccnc21", "note": "[Compound 32Sa, Endo-N-(8-methyl-azabicyclo[3.2.1]oct-3-yl)-1-(butyl)-4-hydroxy-2-oxo-1,2-dihydro-1,8-naphthyridine-3-carboxamide]", "values": [{"measurement": "MLD (Minimum Lethal Dose)", "setting": "ddY strain male mice; i.p.", "value": 100, "unit": "mg/kg"}, {"measurement": "MLD (Minimum Lethal Dose)", "setting": "ddY strain male mice; p.o.", "value": "> 300", "unit": "mg/kg"}]}, {"smiles": "CCCCn1c(=O)cc(C(=O)N[C@@H]2C[C@H]3CC[C@@H](C2)N3C)c2ccccc21", "note": "[Compound 9Sa, Exo-N-(8-methyl-8-azabicyclo[3.2.1]oct-3-yl)-1-(n-butyl)-2-oxo-1,2-dihydro-4-quinolinecarboxamide]", "values": [{"measurement": "MLD (Minimum Lethal Dose)", "setting": "ddY strain male mice; i.p.", "value": 100, "unit": "mg/kg"}, {"measurement": "MLD (Minimum Lethal Dose)", "setting": "ddY strain male mice; p.o.", "value": "> 300", "unit": "mg/kg"}]}, {"smiles": "CC(C)Cn1c(=O)cc(C(=O)O[C@H]2C[C@H]3CC[C@@H](C2)N3C)c2ccccc21", "note": "[Compound 14Sa, Endo-(8-methyl-8-azabicyclo[3.2.1]oct-3-yl) 1-isobutyl-2-oxo-1,2-dihydro-4-quinolinecarboxylate]", "values": [{"measurement": "MLD (Minimum Lethal Dose)", "setting": "ddY strain male mice; i.p.", "value": 50, "unit": "mg/kg"}, {"measurement": "MLD (Minimum Lethal Dose)", "setting": "ddY strain male mice; p.o.", "value": 200, "unit": "mg/kg"}]}, {"smiles": "CCCCn1c(=O)c(C(=O)N[C@H]2C[C@H]3CC[C@@H](C2)N3C)c(O)c2ccccc21", "note": "[Compound 11Sa, Endo-N-(8-methyl-8-azabicyclo[3.2.1]oct-3-yl)-1-(n-butyl)-4-hydroxy-2-oxo-1,2-dihydro-3-quinolinecarboxamide]", "values": [{"measurement": "MLD (Minimum Lethal Dose)", "setting": "ddY strain male mice; i.p.", "value": "> 100", "unit": "mg/kg"}, {"measurement": "MLD (Minimum Lethal Dose)", "setting": "ddY strain male mice; p.o.", "value": "> 300", "unit": "mg/kg"}]}, {"smiles": "CCCCn1c(=O)c(CC)c(C(=O)O[C@H]2C[C@H]3CC[C@@H](C2)N3C)c2ccccc21", "note": "[Compound 20Sa, Endo-(8-methyl-8-azabicyclo[3.2.1)oct-3-yl) 1-(n-butyl)-3-ethyl-2-oxo-1,2-dihydro-4-quinolinecarboxylate]", "values": [{"measurement": "MLD (Minimum Lethal Dose)", "setting": "ddY strain male mice; i.p.", "value": 100, "unit": "mg/kg"}, {"measurement": "MLD (Minimum Lethal Dose)", "setting": "ddY strain male mice; p.o.", "value": 200, "unit": "mg/kg"}]}, {"smiles": "CCCCCCn1c(=O)cc(C(=O)O[C@H]2C[C@H]3CC[C@@H](C2)N3C)c2ccccc21", "note": "[Compound 17Sa, Endo-(8-methyl-8-azabicyclo[3.2.1]oct-3-yl) 1-(n-hexyl)-2-oxo-1,2-dihydro-4-quinolinecarboxylate]", "values": [{"measurement": "MLD (Minimum Lethal Dose)", "setting": "ddY strain male mice; i.p.", "value": 100, "unit": "mg/kg"}, {"measurement": "MLD (Minimum Lethal Dose)", "setting": "ddY strain male mice; p.o.", "value": "> 300", "unit": "mg/kg"}]}, {"smiles": "CN1[C@@H]2CC[C@H]1C[C@@H](OC(=O)c1c(O)c3cccnc3n(-c3ccccc3)c1=O)C2", "note": "[Compound 24Sa, Endo-(8-methyl-8-azabicyclo[3.2.1]oct-3-yl) 4-hydroxy-2-oxo-1-phenyl-1,2-dihydro-1,8-naphthylidine-3-carboxylate]", "values": [{"measurement": "MLD (Minimum Lethal Dose)", "setting": "ddY strain male mice; i.p.", "value": "> 100", "unit": "mg/kg"}, {"measurement": "MLD (Minimum Lethal Dose)", "setting": "ddY strain male mice; p.o.", "value": "> 300", "unit": "mg/kg"}]}, {"smiles": "CN1[C@@H]2CC[C@H]1C[C@@H](NC(=O)c1c(O)c3ccccc3n(-c3ccccc3)c1=O)C2", "note": "[Compound 30Sa, Endo-N-(8-methyl-8-azabicyclo[3.2.1]oct-3-yl)-4-hydroxy-2-oxo-1-phenyl-1,2-dihydro-3-quinolinecarboxamide]", "values": [{"measurement": "MLD (Minimum Lethal Dose)", "setting": "ddY strain male mice; i.p.", "value": 100, "unit": "mg/kg"}, {"measurement": "MLD (Minimum Lethal Dose)", "setting": "ddY strain male mice; p.o.", "value": "> 300", "unit": "mg/kg"}]}, {"smiles": "CC(C)CCn1c(=O)cc(C(=O)O[C@H]2C[C@H]3CC[C@@H](C2)N3C)c2ccccc21", "note": "[Compound 15Sa, Endo-(8-methyl-8-azabicyclo[3.2.1]oct-3-yl) 1-isopentyl-2-oxo-1,2-dihydro-4-quinolinecarboxylate]", "values": [{"measurement": "MLD (Minimum Lethal Dose)", "setting": "ddY strain male mice; i.p.", "value": 100, "unit": "mg/kg"}, {"measurement": "MLD (Minimum Lethal Dose)", "setting": "ddY strain male mice; p.o.", "value": 300, "unit": "mg/kg"}]}, {"smiles": "CCn1c(=O)cc(C(=O)O[C@H]2C[C@H]3CC[C@@H](C2)N3C)c2ccccc21", "note": "[Compound 13Sa, Endo-(8-methyl-8-azabicyclo[3.2.1]oct-3-yl) 1-ethyl-2-oxo-1,2-dihydro-4-quinolinecarboxylate]", "values": [{"measurement": "MLD (Minimum Lethal Dose)", "setting": "ddY strain male mice; i.p.", "value": 100, "unit": "mg/kg"}, {"measurement": "MLD (Minimum Lethal Dose)", "setting": "ddY strain male mice; p.o.", "value": 200, "unit": "mg/kg"}]}]}
